Where two headings read alike, the source gives them in different places.
Tests used:
Assay type in all cases: biochemical
MMP-9 = MMP-9 (Homo sapiens, UniProt P14780); assay: MMP-9 inhibition (thiopeptide or fluorescent peptide substrate); details: read-out: MMP9 IC50
Experimental: (§1) These standard pharmacological test procedures are based on the cleavage of a thiopeptide substrates such as Ac-Pro-Leu-Gly(2-mercapto-4-methyl-pentanoyl)-Leu-Gly-OEt by the matrix metalloproteinases MMP-1, MMP-13 (collagenases) or MMP-9 (gelatinase), which results in the release of a substrate product that reacts colorimetrically with DTNB (5,5′-dithiobis(2-nitro-benzoic acid)). The enzyme activity is measured by the rate of the color increase. The thiopeptide substrate is made up fresh as a 20 mM stock in 100% DMSO and the DTNB is dissolved in 100% DMSO as a 100 mM stock and stored in the dark at room temperature. Both the substrate and DTNB are diluted together to 1 mM with substrate buffer (50 mM HEPES pH 7.5, 5 mM CaCl2) before use. The stock of enzyme is diluted with buffer (50 mM HEPES, pH 7.5, 5 mM CaCl2, 0.02% Brij) to the desired final concentration. The buffer, enzyme, vehicle or inhibitor, and DTNB/substrate are added in this order to a 96 well plate (total reaction volume of 200 μl) and the increase in color is monitored spectrophotometrically for 5 minutes at 405 nm on a plate reader and the increase in color over time is plotted as a linear line.
(§2) Alternatively, a fluorescent peptide substrate is used. In this test procedure, the peptide substrate contains a fluorescent group and a quenching group. Upon cleavage of the substrate by an MMP, the fluorescence that is generated is quantitated on the fluorescence plate reader. The assay is run in HCBC assay buffer (50 mM HEPES, pH 7.0, 5 mM Ca^+2, 0.02% Brij, 0.5% Cysteine), with human recombinant MMP-1, MMP-9, or MMP-13. The substrate is dissolved in methanol and stored frozen in 1 mM aliquots. For the assay, substrate and enzymes are diluted in HCBC buffer to the desired concentrations. Compounds are added to the 96 well plate containing enzyme and the reaction is started by the addition of substrate. The reaction is read (excitation 340 nm, emission 444 nm) for 10 min. and the increase in fluorescence over time is plotted as a linear line.
(§3) For either the thiopeptide or fluorescent peptide test procedures, the slope of the line is calculated and represents the reaction rate. The linearity of the reaction rate is confirmed (r^2>0.85). The mean (x±sem) of the control rate is calculated and compared for statistical significance (p<0.05) with drug-treated rates using Dunnett's multiple comparison test. Dose-response relationships can be generated using multiple doses of drug and IC50 values with 95% CI are estimated using linear regression.

MMP-1 = molecular target: T1, MMP-1 (Homo sapiens, UniProt P03956); assay: MMP-1 inhibition (thiopeptide or fluorescent peptide substrate); details: read-out: MMP1 IC50
T1 sequence (P03956 100-469): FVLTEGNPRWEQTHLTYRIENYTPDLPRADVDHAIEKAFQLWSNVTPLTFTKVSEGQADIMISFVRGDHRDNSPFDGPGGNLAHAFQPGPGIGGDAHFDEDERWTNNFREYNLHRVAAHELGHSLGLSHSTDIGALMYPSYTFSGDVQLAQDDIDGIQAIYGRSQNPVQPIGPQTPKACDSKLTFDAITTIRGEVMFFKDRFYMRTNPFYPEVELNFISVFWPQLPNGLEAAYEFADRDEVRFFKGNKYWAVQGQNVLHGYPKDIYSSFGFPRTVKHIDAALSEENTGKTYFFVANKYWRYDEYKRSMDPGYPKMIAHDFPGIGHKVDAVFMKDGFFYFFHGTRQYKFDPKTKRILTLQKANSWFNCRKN
Experimental: as §1, §2, §3

MMP-13 = MMP-13 (Homo sapiens, UniProt P45452); assay: MMP-13 inhibition (thiopeptide or fluorescent peptide substrate); details: read-out: MMP13 IC50
Experimental: The enzyme activity is measured by the rate of the color increase. The thiopeptide substrate is made up fresh as a 20 mM stock in 100% DMSO and the DTNB is dissolved in 100% DMSO as a 100 mM stock and stored in the dark at room temperature. Both the substrate and DTNB are diluted together to 1 mM with substrate buffer (50 mM HEPES pH 7.5, 5 mM CaCl2) before use. The stock of enzyme is diluted with buffer (50 mM HEPES, pH 7.5, 5 mM CaCl2, 0.02% Brij) to the desired final concentration.
as §2, with “substrate.” for “substrate. The reaction is read (excitation 340 nm, emission 444 nm) for 10 min. and the increase in fluorescence over time is plotted as a linear line.”
For either the thiopeptide or fluorescent peptide test procedures, the slope of the line is calculated and represents the reaction rate. […] The mean (x±sem) of the control rate is calculated and compared for statistical significance (p<0.05) with drug-treated rates using Dunnett's multiple comparison test.

[1] = molecular target: TNF-α converting enzyme (TACE) (Homo sapiens, UniProt P78536); assay: Test procedure for measuring TACE inhibition (fluorescent peptidyl substrate)
Experimental: Using 96-well black microtiter plates, each well receives a solution composed of 10 μL TACE (final concentration 1 μg/mL), 70 μL Tris buffer, pH 7.4 containing 10% glycerol (final concentration 10 mM), and 10 μL of test compound solution in DMSO (final concentration 1 μM, DMSO concentration <1%) and incubated for 10 minutes at room temperature. The reaction is initiated by addition of a fluorescent peptidyl substrate (final concentration 100 μM to each well and then shaking on a shaker for 5 sec.
The reaction is read (excitation 340 nm, emission 420 nm) for 10 min. and the increase in fluorescence over time is plotted as a linear line. The slope of the line is calculated and represents the reaction rate.
The mean (x±sem) of the control rate is calculated and compared for statistical significance (p<0.05) with drug-treated rates using Dunnett's multiple comparison test.

TNF-α converting enzyme (TACE), sequence (P78536 215-824): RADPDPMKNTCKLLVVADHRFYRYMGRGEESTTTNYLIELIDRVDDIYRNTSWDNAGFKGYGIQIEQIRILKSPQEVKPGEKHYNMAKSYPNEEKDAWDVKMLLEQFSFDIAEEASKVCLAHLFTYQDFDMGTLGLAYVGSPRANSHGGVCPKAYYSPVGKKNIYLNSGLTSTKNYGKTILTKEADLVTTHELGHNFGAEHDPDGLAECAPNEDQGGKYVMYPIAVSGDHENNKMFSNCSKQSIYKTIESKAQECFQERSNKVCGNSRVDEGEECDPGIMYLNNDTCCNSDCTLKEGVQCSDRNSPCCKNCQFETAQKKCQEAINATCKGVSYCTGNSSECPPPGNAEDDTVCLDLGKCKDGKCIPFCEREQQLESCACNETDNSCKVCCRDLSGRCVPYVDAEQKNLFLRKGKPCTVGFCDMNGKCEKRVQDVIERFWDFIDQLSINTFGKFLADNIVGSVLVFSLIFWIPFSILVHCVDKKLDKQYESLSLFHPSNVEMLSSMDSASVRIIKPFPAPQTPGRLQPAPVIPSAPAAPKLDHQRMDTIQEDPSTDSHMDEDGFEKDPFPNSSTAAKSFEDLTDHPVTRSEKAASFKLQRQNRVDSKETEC
MMP-9, sequence (P14780 94-707): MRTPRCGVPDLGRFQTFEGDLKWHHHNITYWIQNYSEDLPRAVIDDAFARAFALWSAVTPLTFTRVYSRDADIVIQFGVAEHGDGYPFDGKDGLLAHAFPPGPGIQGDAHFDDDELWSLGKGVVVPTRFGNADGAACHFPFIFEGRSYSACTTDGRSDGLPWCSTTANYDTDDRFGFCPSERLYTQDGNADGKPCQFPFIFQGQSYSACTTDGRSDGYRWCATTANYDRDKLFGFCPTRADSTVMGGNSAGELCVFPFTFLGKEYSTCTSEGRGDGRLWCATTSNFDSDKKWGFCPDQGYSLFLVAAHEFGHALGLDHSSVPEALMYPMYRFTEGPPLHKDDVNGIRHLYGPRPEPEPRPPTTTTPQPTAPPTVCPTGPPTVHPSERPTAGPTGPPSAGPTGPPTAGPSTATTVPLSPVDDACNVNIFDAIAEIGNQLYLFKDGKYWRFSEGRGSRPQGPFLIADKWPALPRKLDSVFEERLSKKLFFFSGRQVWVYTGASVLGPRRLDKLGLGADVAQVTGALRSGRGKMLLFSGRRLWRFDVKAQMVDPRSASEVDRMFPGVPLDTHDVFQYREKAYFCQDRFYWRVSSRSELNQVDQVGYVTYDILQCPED

SMILES	IC50 (MMP-9) [nM]	IC50 (MMP-1) [nM]	IC50 (MMP-13) [nM]	IC50 [1] [nM]	inhibition at 1 µM [1] [%]	IC50 (MMP-1; cells that print nM) [nM]
CC#CCOc1ccc(S(=O)(=O)C2(C(=O)NO)CCN(Cc3ccc(Br)cc3)CC2)cc1 [Example 1, 1-(4-Bromo-benzyl)-4-(4-but-2-ynyxoy-benzenesulfonyl)-piperdine-4-carboxylic acid hydroxyamide]	385	3300	155	65		
CC#CCOc1ccc(S(=O)(=O)C2(C(=O)NO)CCN(Cc3ccc(OC)cc3)CC2)cc1 [Example 2, 4-(4-But-2-ynyloxy-benzenesulfonyl)-1-(4-methoxy-benzyl)-piperdine-4-carboxylic acid hydroxyamide]	164	2570	39.6	82		
CC#CCOc1ccc(S(=O)(=O)C2(C(=O)NO)CCN(Cc3ccc(Cl)cc3)CC2)cc1 [Example 3, 4-(4-But-2-ynyloxy-benzenesulfonyl)-1-(4-chloro-benzyl)-piperdine-4-carboxylic acid hydroxyamide]	280	9000	90	55		
CC#CCOc1ccc(S(=O)(=O)C2(C(=O)NO)CCN(Cc3ccccc3)CC2)cc1 [Example 4, 1-Benzyl-4-(4-but-2-ynyloxy-benzenesulfonyl)-piperdine-4-carboxylic acid hydroxyamide]	148	2600	47.3	90		
CCC#CCOc1ccc(S(=O)(=O)C2(C(=O)NO)CCN(Cc3ccc(Br)cc3)CC2)cc1 [Example 5, 1-(4-Bromo-benzyl)-4-(4-pent-2-ynyloxy-benzenesulfonyl)-piperdine-4-carboxylic acid hydroxyamide]	400	300	180	188		
CC#CCOc1ccc(S(=O)(=O)C2(C(=O)NO)CCN(Cc3ccc(F)cc3)CC2)cc1 [Example 7, 4-(4-But-2-ynyloxy-benzenesulfonyl)-1-(4-fluoro-benzyl)-piperidine-4-carboxylic acid hydroxyamide]	225	2500	59.4	123		
CC#CCOc1ccc(S(=O)(=O)C2(C(=O)NO)CCN(Cc3ccc(C#N)cc3)CC2)cc1 [Example 8, 4-(4-But-2-ynyloxy-benzenesulfonyl)-1-(4-cyano-benzyl)-piperidine-4-carboxylic acid hydroxyamide]	218	4700	72	195		
CC#CCOc1ccc(S(=O)(=O)C2(C(=O)NO)CCN(Cc3ccc(C)cc3)CC2)cc1 [Example 9, 4-(4-But-2-ynyloxy-benzenesulfonyl)-1-(4-methyl-benzyl)-piperidine-4-carboxylic acid hydroxamide]	96.2	2100	35.2	166		
C#CCOc1ccc(S(=O)(=O)C2(C(=O)NO)CCN(Cc3ccc(Br)cc3)CC2)cc1 [Example 11, 1-(4-Bromo-benzyl)-4-(4-prop-2-ynyloxy-benzenesulfonyl)-piperdine-4-carboxylic acid hydroxyamide]	5.8	143	3.1	98		
O=C(NO)C1(S(=O)(=O)c2ccc(OCC#CCN3CCCCC3)cc2)CCN(Cc2ccc(Br)cc2)CC1 [Example 12, 1-(4-bromo-benzyl)-4-[4-(4-piperidin-1-yl-but-2-ynyloxy)-benzenesulfonyl]-piperidine-4-carboxylic acid hydroxyamide]	1000	15000	1500		41.8	
CC#CCOc1ccc(S(=O)(=O)C2(C(=O)NO)CCOCC2)cc1 [Example 20, 4-{[4-(2-butynyloxy)phenyl]sulfonyl}-N-hydroxytetrahydro-2H-pyran-4-carboxamide]	568		121	30.1		2640
CC#CCOc1cccc(S(=O)(=O)C2(C(=O)NO)CCN(Cc3ccccc3)CC2)c1 [Example 21, 1-benzyl-4-{[3-(2-butynyloxy)phenyl]sulfonyl}-N-hydroxy-4-piperdine carboxamide]	3500	> 10000	858	509		
CC#CCOc1ccc(S(=O)(=O)C2(C(=O)NO)CCN(C(C)C)CC2)cc1 [Example 22, 4-{[4-(2-butynyloxy)phenyl]sulfonyl}-N-hydroxy-1-isopropyl-4-piperidine carboxamide]	1810	> 10000	1080		48.4	
CC#CCOc1ccc(S(=O)(=O)C2(C(=O)NO)CCN(Cc3cccnc3)CC2)cc1 [Example 23, 4-{[4-(2-butynyloxy)phenyl]sulfonyl}-N-hydroxy-1-(3-pyridinylmethyl)-4-piperidine carboxamide]	160		64.4	86.2		3210
CC#CCOc1ccc(S(=O)(=O)C2(C(=O)NO)CCCN(CC)C2)cc1 (centres unmarked) [Example 24, 3-{[4-(2-Butynyloxy)phenyl]sulfonyl}-1-ethyl-N-hydroxy-3-piperidinecarboxamide]	2080		463	180		5670
CC#CCOc1ccc(S(=O)(=O)C2(C(=O)NO)CCCN(Cc3ccc(Cl)cc3)C2)cc1 (centres unmarked) [Example 25, 3-{[4-(2-butynyloxy)phenyl]sulfonyl}-1-(4-chlorobenzyl)-N-hydroxy-3-piperidinecarboxamide]	2740	> 10000	1180	695		
CC#CCOc1ccc(S(=O)(=O)C2(C(=O)NO)CCN(Cc3ccc(OCCN4CCCCC4)cc3)CC2)cc1 [Example 26, 4-{[4-(2-Butynyloxy)phenyl]sulfonyl}-1-[4-(2-piperidin-1-yl-ethoxy)-benzyl]-piperidine-4-carboxylic acid hydroxyamide]	25.1		22.1	136		1990
